Experimental data taken from US12581252B2, “Substituted pyrrolo[3,4-b]pyridines as PI3K-α inhibitors” (Relay Therapeutics, Inc., priority 2020, dated 2026).

Target: H1047R PIK3CA enzyme (Homo sapiens, UniProt P42336, H1047R)
Assay: ADP-Glo Biochemical PIK3CA Kinase Assay

Sequence of H1047R PIK3CA enzyme (P42336 whole entry H1047R): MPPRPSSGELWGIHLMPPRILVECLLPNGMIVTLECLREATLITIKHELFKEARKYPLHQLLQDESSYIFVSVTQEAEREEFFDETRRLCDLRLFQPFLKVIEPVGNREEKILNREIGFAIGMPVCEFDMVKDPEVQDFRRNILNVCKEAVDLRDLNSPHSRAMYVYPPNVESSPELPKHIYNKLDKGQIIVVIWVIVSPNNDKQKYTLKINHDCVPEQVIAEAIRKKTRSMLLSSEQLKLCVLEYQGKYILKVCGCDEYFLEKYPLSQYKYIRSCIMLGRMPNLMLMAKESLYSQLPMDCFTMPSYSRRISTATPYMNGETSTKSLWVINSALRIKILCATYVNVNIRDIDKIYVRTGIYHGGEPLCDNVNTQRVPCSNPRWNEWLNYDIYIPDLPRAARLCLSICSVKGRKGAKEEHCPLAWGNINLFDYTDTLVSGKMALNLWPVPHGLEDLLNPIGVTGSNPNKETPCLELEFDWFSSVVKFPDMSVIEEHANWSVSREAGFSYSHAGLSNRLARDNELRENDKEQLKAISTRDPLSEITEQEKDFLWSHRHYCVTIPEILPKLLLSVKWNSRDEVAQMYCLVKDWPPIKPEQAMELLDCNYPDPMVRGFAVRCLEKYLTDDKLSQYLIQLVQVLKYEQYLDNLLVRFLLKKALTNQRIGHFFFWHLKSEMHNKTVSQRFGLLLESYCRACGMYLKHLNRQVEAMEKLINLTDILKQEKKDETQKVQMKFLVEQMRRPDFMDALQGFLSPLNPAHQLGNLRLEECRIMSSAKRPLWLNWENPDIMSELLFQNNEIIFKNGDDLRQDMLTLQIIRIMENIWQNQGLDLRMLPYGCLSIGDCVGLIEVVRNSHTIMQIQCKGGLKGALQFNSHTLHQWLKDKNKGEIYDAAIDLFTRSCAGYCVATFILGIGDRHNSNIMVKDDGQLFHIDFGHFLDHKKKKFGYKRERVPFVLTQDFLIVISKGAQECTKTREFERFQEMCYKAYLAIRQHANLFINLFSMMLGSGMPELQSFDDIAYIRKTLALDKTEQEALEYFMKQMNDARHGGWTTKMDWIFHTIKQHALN
Sequence of H1047R PIK3CA enzyme (P27986 whole entry partner): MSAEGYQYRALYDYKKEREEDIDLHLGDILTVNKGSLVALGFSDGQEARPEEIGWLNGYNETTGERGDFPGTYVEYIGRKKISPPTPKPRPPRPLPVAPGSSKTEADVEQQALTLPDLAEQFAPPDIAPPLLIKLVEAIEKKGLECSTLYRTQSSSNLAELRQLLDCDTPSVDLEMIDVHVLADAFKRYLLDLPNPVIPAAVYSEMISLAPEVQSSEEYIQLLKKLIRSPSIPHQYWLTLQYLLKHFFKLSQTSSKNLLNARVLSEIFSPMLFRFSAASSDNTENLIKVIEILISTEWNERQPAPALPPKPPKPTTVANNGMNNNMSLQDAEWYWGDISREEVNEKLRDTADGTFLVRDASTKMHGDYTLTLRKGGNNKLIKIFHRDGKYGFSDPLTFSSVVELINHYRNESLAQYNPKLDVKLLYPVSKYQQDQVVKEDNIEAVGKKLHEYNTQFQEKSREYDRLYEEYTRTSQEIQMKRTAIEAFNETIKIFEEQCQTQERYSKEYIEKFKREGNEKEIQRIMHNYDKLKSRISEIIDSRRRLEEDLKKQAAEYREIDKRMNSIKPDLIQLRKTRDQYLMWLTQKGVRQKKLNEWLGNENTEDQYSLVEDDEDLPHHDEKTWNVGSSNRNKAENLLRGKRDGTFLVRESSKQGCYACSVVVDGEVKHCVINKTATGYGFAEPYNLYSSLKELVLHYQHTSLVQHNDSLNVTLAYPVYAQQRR

IC50 [nM] | Structure (SMILES)
≤ 100 | N#Cc1cn(Cc2cc(NC(=O)c3cc(F)cc(C(F)(F)F)c3)c3c(c2)C(=O)NC3c2cc(F)ccc2Cl)cn1 (stereo not shown) [Compound I-1719]
≤ 100 | CCC(=O)Nc1cc(NC(=O)c2cc(F)cc(C(F)(F)F)c2)c2c(c1)C(=O)NC2c1cc(F)ccc1Cl (stereo not shown) [Compound I-552]
100 to 500 | Cc1ccccc1C1NC(=O)c2cccc(NC(=O)N3CCc4ccc(F)cc43)c21 (stereo not shown) [Compound I-96]
1000 to 10000 | C[C@@H](CCC(F)(F)F)C(=O)Nc1cccc2c1[C@H](c1cc(F)ccc1Cl)NC2=O [Compound I-2138]
1000 to 10000 | O=C(Nc1cccc(C(F)(F)F)c1)c1cccc2c1C(c1cc(F)ccc1Cl)NC2=O (stereo not shown) [Compound I-2189]
10000 to 100000 | O=C1N[C@H](c2cc(F)ccc2Cl)c2c(NC(=O)[C@@H]3CCC[C@@H](OC(F)(F)F)C3)cccc21 (single isomer, unassigned) [Compound I-2215]
10000 to 100000 | CNC(=O)c1cc(NC(=O)c2cc(F)cc(C(F)(F)F)c2)c2c(c1)C(=O)N[C@@H]2c1ccccc1C [Compound I-211]
10000 to 100000 | O=C1N[C@H](c2cc(F)ccc2Cl)c2c(NC(=O)N3C[C@H](O)c4ccccc43)cc(-c3ccc4ncnn4c3)cc21 (single isomer, unassigned) [Compound I-1578]
500 to 1000 | O=C1NC(c2cccc(F)c2F)c2c(NC(=O)c3nsc4ccccc34)ccnc21 (stereo not shown) [Compound I-175]
≤ 100 | CC(=O)N1CCC[C@@H]1COc1cc(NC(=O)c2cc(F)cc(C(F)(F)F)c2)c2c(c1)C(=O)NC2c1cc(F)ccc1Cl (single isomer, unassigned) [Compound I-1467]
≤ 100 | O=C(Nc1cc(Cc2ccc3c(c2)CCNC3=O)cc2c1C(c1cc(F)ccc1Cl)NC2=O)c1cc(F)cc(C(F)(F)F)c1 (stereo not shown) [Compound I-1475]
≤ 100 | O=C(Nc1cc(-c2ccc3ncnn3c2)c(Cl)c2c1C(c1cc(F)ccc1Cl)NC2=O)c1cc(F)cc(C(F)(F)F)c1 (stereo not shown) [Compound I-1667]
10000 to 100000 | CC(=O)N1CC(C2NC(=O)c3cccc(NC(=O)c4cc(F)cc(C(F)(F)F)c4)c32)C1 (stereo not shown) [Compound I-1909]
1000 to 10000 | Cn1nccc1-c1cc(NC(=O)c2cc(F)cc(C(F)(F)F)c2)c2c(c1)C(=O)N[C@@H]2c1cc(F)ccc1Cl [Compound I-1137]
100 to 500 | O=C1NC(c2cc(F)ccc2Cl)c2c(NC(=O)N3CCCC4CCCC43)cc(Br)cc21 (stereo not shown) [Compound I-722]
100 to 500 | O=C(Nc1cc(OC2CN(C(=O)C(F)(F)F)C2)cc2c1C(c1cc(F)ccc1Cl)NC2=O)c1cc(F)cc(C(F)(F)F)c1 (racemic) [Compound I-1320]
≤ 100 | O=C(Nc1cc(-c2ccc(C(F)F)nc2)cc2c1[C@H](c1cc(F)ccc1Cl)NC2=O)c1cc(F)cc(C(F)(F)F)c1 [Compound I-2008]
1000 to 10000 | N#Cc1cc(NC(=O)N2C[C@](O)(C(F)(F)F)c3ccccc32)c2c(c1)C(=O)N[C@H]2c1cc(F)ccc1Cl (single isomer, unassigned) [Compound I-2565]
10000 to 100000 | N#Cc1cc(-c2ccc(=O)[nH]c2)cc2c1C(c1cc(F)ccc1Cl)NC2=O (stereo not shown) [Compound I-2089]
≤ 100 | Cc1cnc2ccc(-c3cc(NC(=O)c4cc(F)cc(C(F)(F)F)c4)c4c(c3)C(=O)NC4c3cc(F)ccc3Cl)nn12 (stereo not shown) [Compound I-1190]
500 to 1000 | O=C1NC(c2cc(F)ccc2Cl)c2c(NC(=S)c3cc(F)cc(C(F)(F)F)c3)cccc21 (stereo not shown) [Compound I-753]

IC50 [nM] | Structure (SMILES)
10000 to 100000 | O=C1N[C@@H](c2cc(F)ccc2Cl)c2c(N[C@@H]3CCOc4ccccc43)cc(Br)cc21 (racemic) [Compound I-2014]
10000 to 100000 | CN1CCN(c2cc(-c3ccc4ncnn4c3)cc3c2C(c2cc(F)ccc2Cl)NC3=O)CC1 (stereo not shown) [Compound I-1952]
≤ 100 | COc1ccc(Oc2cc(NC(=O)c3cc(F)cc(C(F)(F)F)c3)c3c(c2)C(=O)NC3c2cc(F)ccc2Cl)nn1 (stereo not shown) [Compound I-1147]
100 to 500 | O=C1NC(c2cc(F)ccc2Cl)c2c1cccc2-c1cc2c(Cl)cc(F)cc2[nH]1 (stereo not shown) [Compound I-1317]
100 to 500 | O=C1N[C@@H](c2cc(F)ccc2Cl)c2c(NC(=O)N3C[C@](O)(C(F)(F)F)c4cc(F)ccc43)cc(Cl)cc21 (single isomer, unassigned) [Compound I-2511]
≤ 100 | Cc1ccccc1C1NC(=O)c2c(CN)ccc(NC(=O)c3csc4ccccc34)c21 (stereo not shown) [Compound I-140]
1000 to 10000 | O=C1NC(c2cc(F)ccc2Cl)c2c(NC(=O)c3c[nH]c4cccc(Cl)c34)cc(Br)cc21 (stereo not shown) [Compound I-956]
10000 to 100000 | O=C1N[C@H](c2cc(F)ccc2Cl)c2c(NC(=O)N3C[C@@H](O)c4cc(F)ccc43)cccc21 (single isomer, unassigned) [Compound I-2129]
≤ 100 | O=C1NC(c2cc(F)ccc2Cl)c2c(N/C(=N\O)c3cc(F)cc(C(F)(F)F)c3)cccc21 (stereo not shown) [Compound I-1100]
500 to 1000 | O=C1N[C@@H](c2cc(F)ccc2Cl)c2c(NC(=O)N3C[C@@H](O)c4cc(F)ccc43)cc(-n3ccnn3)cc21 (single isomer, unassigned) [Compound I-2370]
1000 to 10000 | CCC1CCCN1C(=O)Nc1cccc2c1C(c1cc(F)ccc1Cl)NC2=O (mixture of isomers) [Compound I-2395]
10000 to 100000 | N#Cc1ccc2c(c1)CCN2C(=O)Nc1cccc2c1C(c1cc(F)ccc1Cl)NC2=O (stereo not shown) [Compound I-2426]
1000 to 10000 | CNC(=O)c1cc(NC(=O)c2cc(F)cc(C(F)(F)F)c2)c2c(c1)c(=O)[nH]n2-c1cc(F)ccc1Cl [Compound I-808]
10000 to 100000 | O=C1NCc2c(NC(=O)N3CCCCC3Cc3ccccc3)cccc21 (stereo not shown) [Compound I-990]
10000 to 100000 | Cc1ccccc1C1NC(=O)c2cccc(NC(=O)c3nc(C)n4ccc(Cl)cc34)c21 (stereo not shown) [Compound I-277, 7-Chloro-N-(1-oxo-3-(o-tolyl)isoindolin-4-yl)-3-methylimidazo[1,5-a]pyridine-1-carboxamide]
100 to 500 | CC(C)[C@@]1(O)CN(C(=O)Nc2cccc3c2[C@@H](c2cc(F)ccc2Cl)NC3=O)c2ccc(F)cc21 (single isomer, unassigned) [Compound I-2454]
≤ 100 | O=C(Nc1cc(-c2ccn3nc(C4CC4)nc3c2)cc2c1C(c1cc(F)ccc1Cl)NC2=O)c1cc(F)cc(C(F)(F)F)c1 (stereo not shown) [Compound I-1651]
1000 to 10000 | CC(O)C1NC(=O)c2cccc(NC(=O)c3cc(F)cc(C(F)(F)F)c3)c21 (stereo not shown) [Compound I-1776]
≤ 100 | N#Cc1cc2ncnn2cc1-c1cc(NC(=O)c2cc(F)cc(C(F)(F)F)c2)c2c(c1)C(=O)N[C@@H]2c1cc(F)ccc1Cl (single isomer, unassigned) [Compound I-1646]
1000 to 10000 | O=C1N[C@H](c2cc(F)ccc2Cl)c2c(NC(=O)N3C[C@](O)(C(F)(F)F)c4cc(F)ccc43)ccc(-n3cccn3)c21 (single isomer, unassigned) [Compound I-2494]
≤ 100 | O=C(Nc1cc(Cl)nc2c1C(c1cc(F)ccc1Cl)NC2=O)c1cc(F)cc(C(F)(F)F)c1 (stereo not shown) [Compound I-545]

IC50 [nM] | Structure (SMILES)
10000 to 100000 | Cn1c(Cl)cc(C(=O)Nc2cc(Br)cc3c2C(c2cc(F)ccc2Cl)NC3=O)cc1=O (stereo not shown) [Compound I-1209]
≤ 100 | Cn1ccnc1C(C)(O)c1cc(NC(=O)c2cc(F)cc(C(F)(F)F)c2)c2c(c1)C(=O)NC2c1cc(F)ccc1Cl (stereo not shown) [Compound I-1199]
1000 to 10000 | O=C1N[C@@H](c2cc(F)ccc2Cl)c2c(NC(=O)N3C[C@H](O)c4cc(F)ccc43)cc(-n3ccnn3)cc21 (single isomer, unassigned) [Compound I-2368]
1000 to 10000 | N#Cc1cnn(-c2cc(NC(=O)N3C[C@H](O)c4cc(F)ccc43)c3c(c2)C(=O)N[C@@H]3c2cc(F)ccc2Cl)c1 (single isomer, unassigned) [Compound I-2406]
≤ 100 | Cn1ccc(-c2cc(NC(=O)c3cc(F)cc(C(F)(F)F)c3)c3c(c2)C(=O)NC3c2cc(F)ccc2Cl)cc1=O (stereo not shown) [Compound I-889]
100 to 500 | O=C(Nc1cc(Br)cc2c1[C@H](c1cc(F)ccc1F)NC2=O)c1cc(F)cc(C(F)(F)F)c1 [Compound I-674]
≤ 100 | N#CCOc1ncc(-c2cc(NC(=O)c3cc(F)cc(C(F)(F)F)c3)c3c(c2)C(=O)NC3c2cc(F)ccc2Cl)cn1 (stereo not shown) [Compound I-1530]
10000 to 100000 | Cc1ccccc1C1NC(=O)c2cccc(NC(=O)c3cc(F)cc4c(C(=O)C(F)(F)F)c[nH]c34)c21 (stereo not shown) [Compound I-408]
10000 to 100000 | O=C1NC(c2cc(F)ccc2Cl)c2c(Nc3nsc4ccccc34)cc(Br)cc21 (stereo not shown) [Compound I-1060]
1000 to 10000 | O=C(Cc1ccccc1C(F)(F)F)Nc1cc(Br)cc2c1C(c1cc(F)ccc1Cl)NC2=O (stereo not shown) [Compound I-568]
10000 to 100000 | Cc1ccccc1C1NC(=O)c2cccc(NC(=O)c3cnc4ccc(Cl)cn34)c21 (stereo not shown) [Compound I-47]
10000 to 100000 | COc1cccc(C2NC(=O)c3cccc(NC(=O)c4cc(F)cc(C(F)(F)F)c4)c32)c1 (stereo not shown) [Compound I-687]
10000 to 100000 | O=C1N[C@H](c2cc(F)ccc2Cl)c2c(NC(=O)N3CCOCC(F)(F)C3)cc(Br)cc21 (single isomer, unassigned) [Compound I-2243]
10000 to 100000 | N#Cc1cnn(Cc2cc(NC(=O)N3C[C@@](O)(C(F)(F)F)c4cc(F)ccc43)c3c(c2)C(=O)N[C@H]3c2cc(F)ccc2Cl)c1 (single isomer, unassigned) [Compound I-2672]
1000 to 10000 | Cc1nccn1-c1cc(NC(=O)N2C[C@](O)(C(F)(F)F)c3cc(F)ccc32)c2c(c1)C(=O)N[C@H]2c1cc(F)ccc1Cl (single isomer, unassigned) [Compound I-2664]
100 to 500 | N#CC1(COc2cc(NC(=O)N3C[C@H](O)c4cc(F)ccc43)c3c(c2)C(=O)N[C@@H]3c2cc(F)ccc2Cl)CC1 (single isomer, unassigned) [Compound I-2554]
≤ 100 | O=C(O)c1cc(NC(=O)c2cc(F)cc(C(F)(F)F)c2)c2c(c1)C(=O)NC2c1cc(F)ccc1Cl (stereo not shown) [Compound I-494]
1000 to 10000 | O=C1NC(c2cc(F)ccc2Cl)c2c(NC(=O)N3CC(O)c4cc(Cl)ccc43)cccc21 (mixture of isomers) [Compound I-2376]
10000 to 100000 | O=C(CC1CCC1)Nc1cc(-c2ccc3ncnn3c2)cc2c1C(c1cc(F)ccc1Cl)NC2=O (stereo not shown) [Compound I-1777]
